Here are results for one molecule from ChEMBL document CHEMBL1144071, “Elisabatins A and B: new amphilectane-type diterpenes from the West Indian sea whip Pseudopterogorgia elisabethae” (1999).

Activity calls are given as the source filed them. The rule behind the calls is not given here.

The subject of experiment [1] is Human immunodeficiency virus. As to the kind of experiment: Antiviral activity against HIV by NCI test. It counts as functional, organism-based.
Experiment [2] deals with Mycobacterium tuberculosis. Description: Antimycobacterial activity against Mycobacterium tuberculosis at 12.5 ug/mL. The format is functional.

For the molecule `CC(C)=C[C@@H]1C[C@H](C)c2c(O)cc(C)c3c2C1=C(C)C(=O)C3=O` [ELISABATIN A], in experiment [1], the result was inactive. The Activity in experiment [2] amounted to 21%.
